Measured values as given in patent publication US9989520B2, “Human hepatoma cell line HLCZ01 and uses thereof” (HUNAN PROVINCIAL TUMOR HOSPITAL, priority 2013, dated 2018).

B1: TRAIL (protein, UniProt P50591 1-281, looked up)
Tumor necrosis factor ligand …: MAMMEVQGGPSLGQTCVLIVIFTVLLQSLCVAVTYVYFTNELKQMQDKYSKSGIACFLKEDDSYWDPNDEESMNSPCWQVKWQLRQLVRKMILRTSEETISTVQEKQQNISPLVRERGPQRVAAHITGTRGRSNTLSSPNSKNEKALGRKINSWESSRSGHSFLSNLHLRNGELVIHEKGFYYIYSQTYFRFQEEIKENTKNDKQMVQYIYKYTSYPDPILLMKSARNSCWSKDAEYGLYSIYQGGIFELKENDRIFVSVTNEHLIDMDHEASFFGAFLVG
notes: TRAIL at the current phase II of clinical trail

Columns and labels:
hepatitis C virus = test: α-interferon treatment of HCV-infected HLCZ01 cells (amount of HCV, quantitative PCR); type: cell-based, hepatitis C virus (in human hepatoma cell line HLCZ01); conditions: with respect to doses of α-interferon and time (hours), FIG. 10
Experimental: FIG. 10 is a column diagram for the human hepatoma cell line HLCZ01 according to the above first embodiment of the present invention, illustrating the amount of HCV with respect to the amount of interferon used and time (hours).
1. The human hepatoma cell line HLCZ01 cells and Huh7.5 cells are placed on the 6-well cell culture plate (200,000/well). After 24 hours, the medium is replaced with medium containing 2% FBS, and the cells are infected by HCV. The medium is changed after 24 hours. Huh7.5 cells and human hepatoma cell line HLCZ01 are cultured for 1 day, 2 days, 3 days and 6 days respectively, and TRIZOL is used to extract total RNA from the above mentioned two cell lines at different time points after virus infection. One microgram of the total RNA is reversely transcribed into cDNA, and 1 μL of cDNA are used as templates for processing quantitative PCR.
(§1) According to the human hepatoma cell line HLCZ01 of the present invention, the human hepatoma cell line HLCZ01 can also be used for the preparation, screening or evaluating anti-HCV drugs. […] Therefore, the human hepatoma cell line HLCZ01 of the present invention can be used for the preparation, screening or evaluating the anti-HCV drugs.

hepatitis B virus = test: α-interferon treatment of HBV-infected HLCZ01 cells (amount of HBV, quantitative PCR); type: cell-based, hepatitis B virus (in human hepatoma cell line HLCZ01); conditions: based on amount of α-interferon added and processing time (days), FIG. 9
Experimental: FIG. 9 is a column diagram for the human hepatoma cell line HLCZ01 according to the above second embodiment of the present invention, illustrating the amount of HBV with respect to the amount of interferon used and time (days).
The human hepatoma cell line HLCZ01 is placed on the 60 mm culture plate. After 24 hours, the medium (DMEM medium) is replaced to the mixture of a supernatant of HepaG2.2.15 cells with a complete medium (1:1 by volume ratio), and then the human hepatoma cell line HLCZ01 is continuously cultured. The cells were passaged every 3 to 5 days. DNA from HBV-infected human hepatoma cell line HLCZ01 was isolated every three days. One microgram of DNA from HBV-infected HLCZ01 cells is used as template for processing quantitative PCR and HBV DNA level in the human hepatoma cell line HLCZ01 is detected.
as §1, with “evaluating the anti-HBV” for “evaluating anti-HCV”, “the anti-HBV” for “the anti-HCV”

HLCZ01 cells = test: TRAIL sensitivity of HLCZ01 cells by flow cytometry; type: cell-based, human; conditions: HLCZ01 cells treated with TRAIL, FIG. 11

Molecule | amount of virus in HCV-infected HLCZ01 cells (hepatitis C virus) | amount of HBV in the human hepatoma cell line HLCZ01 (hepatitis B virus) | death of the HLCZ01 cells (HLCZ01 cells)
α-interferon | able to reduce the amount of virus in HCV-infected HLCZ01 cells | able to reduce the amount of HBV in the human hepatoma cell line HLCZ01 | 
B1 |  |  | able to induce the death of the HLCZ01 cells
